Each compound was assayed on Italian ryegrass (assay: Test Example 5: herbicidal effect by foliage application, plastic box (Table 20, symbol K)). Conditions: foliage application, 320 g/ha, evaluated three weeks after application.
Type: in vivo, Italian ryegrass (Lolium multiflorum)
Method in brief: (§1)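 Sow seeds spot-wise in sterilized diluvial soil; cover with ~1.5 cm soil. Grow 14 days in greenhouse, 25° C. to 30° C. Spray foliage with emulsion diluted to predetermined amount. Rate effect after 3 weeks.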

Row | Compound | herbicidal effect on K: Italian ryegrass
1 | CSc1ccc(-c2sc3ccc(F)cc3c2-c2c(O)c(C)nn(C)c2=O)cc1 [2-076] | 4 (Herbicidal rate of 70% or more and less than 90%)
2 | CCCC(=O)Oc1c(C)nn(C)c(=O)c1-c1c(-c2ccc(SC)cc2)sc2ccc(F)cc12 [2-077] | 5 (Herbicidal rate of 90% or more (almost completely withered))

What follows are compounds tested on blackgrass (assay: Test Example 5: herbicidal effect by foliage application, plastic box (Table 20, symbol J)). Conditions: foliage application, 320 g/ha, evaluated three weeks after application.
Type: in vivo, blackgrass (Alopecurus myosuroides)
Method in brief: as §1

Row | Compound | herbicidal effect on J: blackgrass
3 | CSc1ccc(-c2sc3ccc(F)cc3c2-c2c(O)c(C)nn(C)c2=O)cc1 [2-076] | 4 (Herbicidal rate of 70% or more and less than 90%)
4 | CCCC(=O)Oc1c(C)nn(C)c(=O)c1-c1c(-c2ccc(SC)cc2)sc2ccc(F)cc12 [2-077] | 4 (Herbicidal rate of 70% or more and less than 90%)

The compounds below were run on blackgrass (assay: Test Example 4: herbicidal effect by soil treatment (Table 19, symbol J)). Conditions: 320 g/ha.
Type: in vivo, blackgrass (Alopecurus myosuroides)
Method in brief: (§2)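 Applied as a water-diluted emulsion, the compound was sprayed onto soil covering newly sown seeds. Evaluation came three weeks after application, in a greenhouse held at 25° C. to 30° C.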

Row | Compound | herbicidal effect rating, J: blackgrass
5 | CSc1ccc(-c2sc3ccc(F)cc3c2-c2c(O)c(C)nn(C)c2=O)cc1 [2-076] | 0 (Herbicidal rate of 5% or less (almost no effect))
6 | CCCC(=O)Oc1c(C)nn(C)c(=O)c1-c1c(-c2ccc(SC)cc2)sc2ccc(F)cc12 [2-077] | 2 (Herbicidal rate of 20% or more and less than 40%)

Each compound was assayed on redroot pigweed (assay: Test Example 5: herbicidal effect by foliage application, plastic box (Table 20, symbol N)). Conditions: foliage application, 320 g/ha, evaluated three weeks after application.
Type: in vivo, redroot pigweed (Amaranthus retroflexus)
Method in brief: as §1

Row | Compound | herbicidal effect on N: redroot pigweed
7 | CSc1ccc(-c2sc3ccc(F)cc3c2-c2c(O)c(C)nn(C)c2=O)cc1 [2-076] | 5 (Herbicidal rate of 90% or more (almost completely withered))
8 | CCCC(=O)Oc1c(C)nn(C)c(=O)c1-c1c(-c2ccc(SC)cc2)sc2ccc(F)cc12 [2-077] | 5 (Herbicidal rate of 90% or more (almost completely withered))

These compounds were tested on velvetleaf (assay: Test Example 5: herbicidal effect by foliage application, plastic box (Table 20, symbol M)). Conditions: foliage application, 320 g/ha, evaluated three weeks after application.
Type: in vivo, velvetleaf (Abutilon theophrasti)
Method in brief: as §1

Row | Compound | herbicidal effect on M: velvetleaf
9 | CSc1ccc(-c2sc3ccc(F)cc3c2-c2c(O)c(C)nn(C)c2=O)cc1 [2-076] | 5 (Herbicidal rate of 90% or more (almost completely withered))
10 | CCCC(=O)Oc1c(C)nn(C)c(=O)c1-c1c(-c2ccc(SC)cc2)sc2ccc(F)cc12 [2-077] | 5 (Herbicidal rate of 90% or more (almost completely withered))

The compounds below were run on persian speedwell (assay: Test Example 4: herbicidal effect by soil treatment (Table 19, symbol R)). Conditions: 320 g/ha.
Type: in vivo, Persian speedwell (Veronica persica)
Method in brief: as §2

Row | Compound | herbicidal effect rating, R: persian speedwell
11 | CSc1ccc(-c2sc3ccc(F)cc3c2-c2c(O)c(C)nn(C)c2=O)cc1 [2-076] | 5 (Herbicidal rate of 90% or more (almost completely withered))
12 | CCCC(=O)Oc1c(C)nn(C)c(=O)c1-c1c(-c2ccc(SC)cc2)sc2ccc(F)cc12 [2-077] | 5 (Herbicidal rate of 90% or more (almost completely withered))

Each compound was assayed on late watergrass (assay: Test Example 2: herbicidal activity, application during weed generation under submerged conditions (Table 17, symbol A)). Conditions: AAH 320 g/ha; application during weed generation, submerged conditions.
Type: in vivo, late watergrass (Echinochloa oryzicola)
Method in brief: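 Herbicide emulsion, diluted with water to the chosen amount, is applied onto 4 cm floodwater over alluvial soil where the weeds were co-sown and raised at 25–30° C. Application timing: 1–2 leaves. Assessment: three weeks afterwards.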

Row | Compound | herbicidal effect rating, A: late watergrass
13 | CSc1ccc(-c2sc3ccc(F)cc3c2-c2c(O)c(C)nn(C)c2=O)cc1 [2-076] | 2 (Herbicidal rate of 20% or more and less than 40%)
14 | CCCC(=O)Oc1c(C)nn(C)c(=O)c1-c1c(-c2ccc(SC)cc2)sc2ccc(F)cc12 [2-077] | 4 (Herbicidal rate of 70% or more and less than 90%)

Each compound was assayed on late watergrass (assay: Test Example 1: herbicidal activity, application before weed generation under submerged conditions (Table 16, symbol A)). Conditions: 320 g/ha applied herbicide.
Type: in vivo, late watergrass (Echinochloa oryzicola)
Method in brief: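 Alluvial soil was flooded to 4 cm depth, weed seeds were sown mixed and 2.5-leaf rice seedlings were transplanted. On sowing day, the compound's emulsion, diluted in water to a set dose, was applied to the water surface. Plants grew at 25–30 °C and were scored 0–5 after three weeks.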

Row | Compound | Herbicidal effect on A: late watergrass (grade 0-5)
15 | CSc1ccc(-c2sc3ccc(F)cc3c2-c2c(O)c(C)nn(C)c2=O)cc1 [2-076] | 3 (Herbicidal rate of 40% or more and less than 70%)
16 | CCCC(=O)Oc1c(C)nn(C)c(=O)c1-c1c(-c2ccc(SC)cc2)sc2ccc(F)cc12 [2-077] | 3 (Herbicidal rate of 40% or more and less than 70%)

These compounds were tested on lambsquarters (assay: Test Example 5: herbicidal effect by foliage application, plastic box (Table 20, symbol O)). Conditions: foliage application, 320 g/ha, evaluated three weeks after application.
Type: in vivo, lambsquarters (Chenopodium album)
Method in brief: as §1

Row | Compound | herbicidal effect on O: lambsquarters
17 | CSc1ccc(-c2sc3ccc(F)cc3c2-c2c(O)c(C)nn(C)c2=O)cc1 [2-076] | 5 (Herbicidal rate of 90% or more (almost completely withered))
18 | CCCC(=O)Oc1c(C)nn(C)c(=O)c1-c1c(-c2ccc(SC)cc2)sc2ccc(F)cc12 [2-077] | 5 (Herbicidal rate of 90% or more (almost completely withered))

These compounds were tested on velvetleaf (assay: Test Example 4: herbicidal effect by soil treatment (Table 19, symbol M)). Conditions: 320 g/ha.
Type: in vivo, velvetleaf (Abutilon theophrasti)
Method in brief: as §2

Row | Compound | herbicidal effect rating, M: velvetleaf
19 | CSc1ccc(-c2sc3ccc(F)cc3c2-c2c(O)c(C)nn(C)c2=O)cc1 [2-076] | 2 (Herbicidal rate of 20% or more and less than 40%)
20 | CCCC(=O)Oc1c(C)nn(C)c(=O)c1-c1c(-c2ccc(SC)cc2)sc2ccc(F)cc12 [2-077] | 3 (Herbicidal rate of 40% or more and less than 70%)

The compounds below were run on Italian ryegrass (assay: Test Example 4: herbicidal effect by soil treatment (Table 19, symbol K)). Conditions: 320 g/ha.
Type: in vivo, Italian ryegrass (Lolium multiflorum)
Method in brief: as §2

Row | Compound | herbicidal effect rating, K: Italian ryegrass
21 | CSc1ccc(-c2sc3ccc(F)cc3c2-c2c(O)c(C)nn(C)c2=O)cc1 [2-076] | 4 (Herbicidal rate of 70% or more and less than 90%)
22 | CCCC(=O)Oc1c(C)nn(C)c(=O)c1-c1c(-c2ccc(SC)cc2)sc2ccc(F)cc12 [2-077] | 3 (Herbicidal rate of 40% or more and less than 70%)

These compounds were tested on barnyard grass (assay: Test Example 3: herbicidal effect by foliage application, Wagner pot (Table 18, symbol H)). Conditions: 320 g/ha.
Type: in vivo, barnyard grass (Echinochloa crus-galli)
Method in brief: (§3)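 Plants were sown in alluvial soil held under 0.1–0.5 cm standing water and grown 14 days in a greenhouse at 25–30 °C. An emulsifiable formulation, water-diluted to the set dose, was then sprayed onto the foliage, and effects were scored three weeks later using previously defined criteria.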

Row | Compound | herbicidal effect on H (barnyard grass), rating 0-5
23 | CSc1ccc(-c2sc3ccc(F)cc3c2-c2c(O)c(C)nn(C)c2=O)cc1 [2-076] | 5 (Herbicidal rate of 90% or more (almost completely withered))
24 | CCCC(=O)Oc1c(C)nn(C)c(=O)c1-c1c(-c2ccc(SC)cc2)sc2ccc(F)cc12 [2-077] | 5 (Herbicidal rate of 90% or more (almost completely withered))

The compounds below were run on lambsquarters (assay: Test Example 4: herbicidal effect by soil treatment (Table 19, symbol O)). Conditions: 320 g/ha.
Type: in vivo, lambsquarters (Chenopodium album)
Method in brief: as §2

Row | Compound | herbicidal effect rating, O: lambsquarters
25 | CSc1ccc(-c2sc3ccc(F)cc3c2-c2c(O)c(C)nn(C)c2=O)cc1 [2-076] | 3 (Herbicidal rate of 40% or more and less than 70%)
26 | CCCC(=O)Oc1c(C)nn(C)c(=O)c1-c1c(-c2ccc(SC)cc2)sc2ccc(F)cc12 [2-077] | 5 (Herbicidal rate of 90% or more (almost completely withered))

These compounds were tested on windgrass (assay: Test Example 4: herbicidal effect by soil treatment (Table 19, symbol L)). Conditions: 320 g/ha.
Type: in vivo, windgrass (Apera spica-venti)
Method in brief: as §2

Row | Compound | herbicidal effect rating, L: windgrass
27 | CSc1ccc(-c2sc3ccc(F)cc3c2-c2c(O)c(C)nn(C)c2=O)cc1 [2-076] | 4 (Herbicidal rate of 70% or more and less than 90%)
28 | CCCC(=O)Oc1c(C)nn(C)c(=O)c1-c1c(-c2ccc(SC)cc2)sc2ccc(F)cc12 [2-077] | 3 (Herbicidal rate of 40% or more and less than 70%)

The compounds below were run on southern crabgrass (assay: Test Example 4: herbicidal effect by soil treatment (Table 19, symbol F)). Conditions: 320 g/ha.
Type: in vivo, southern crabgrass (Digitaria ciliaris)
Method in brief: as §2

Row | Compound | herbicidal effect rating, F: southern crabgrass
29 | CSc1ccc(-c2sc3ccc(F)cc3c2-c2c(O)c(C)nn(C)c2=O)cc1 [2-076] | 3 (Herbicidal rate of 40% or more and less than 70%)
30 | CCCC(=O)Oc1c(C)nn(C)c(=O)c1-c1c(-c2ccc(SC)cc2)sc2ccc(F)cc12 [2-077] | 2 (Herbicidal rate of 20% or more and less than 40%)

These compounds were tested on Chinese sprangletop (assay: Test Example 3: herbicidal effect by foliage application, Wagner pot (Table 18, symbol D)). Conditions: 320 g/ha.
Type: in vivo, chinese sprangletop (Leptochloa chinensis)
Method in brief: as §3

Row | Compound | herbicidal effect on D (Chinese sprangletop), rating 0-5
31 | CSc1ccc(-c2sc3ccc(F)cc3c2-c2c(O)c(C)nn(C)c2=O)cc1 [2-076] | 5 (Herbicidal rate of 90% or more (almost completely withered))
32 | CCCC(=O)Oc1c(C)nn(C)c(=O)c1-c1c(-c2ccc(SC)cc2)sc2ccc(F)cc12 [2-077] | 5 (Herbicidal rate of 90% or more (almost completely withered))
